According to patent US20090042839A1, “Crystalline forms of ibandronate sodium” (priority 2007, published 2009):

What was measured:
[1] = Stability of crystalline forms of ibandronate sodium when stored for 3 months at room temperature (polymorphic form by XRD); type: physicochemical; details: for crystalline form after storage: storage at room temperature for 3 months; for Results (crystalline form after storage): stored at 25° C., polyethylene bags in closed Aluminium bags, monosodium salt
Procedure: The x-ray powder diffraction was performed on Scintag X-ray powder diffractometer model X'TRA with a solid state detector at room temperature. Copper radiation of 1.5418 Å was used. The sample holder was a round standard aluminum sample holder with rough zero background. The scanning parameters were range: 2-40 degrees two-theta; scan mode: continuous scan; step size: 0.05 degrees; and at a rate of 5 degrees/minute. […]

[2] = Storage of crystalline ibandronate sodium Form C at room temperature for 2 years, retested by XRD; type: physicochemical; details: stored at room temperature for 2 years
Procedure: The x-ray powder diffraction was performed on Scintag X-ray powder diffractometer model X'TRA with a solid state detector at room temperature. Copper radiation of 1.5418 Å was used. The sample holder was a round standard aluminum sample holder with rough zero background. The scanning parameters were range: 2-40 degrees two-theta; scan mode: continuous scan; step size: 0.05 degrees; and at a rate of 5 degrees/minute.
Crystalline ibandronate sodium Form C was stored at room temperature for 2 years.

| SMILES | crystalline form after storage [1] | Results (crystalline form after storage) ([1]; 1 month) | Results (crystalline form after storage) ([1]; 3 months) | crystalline form found by XRD after storage [2] |
| --- | --- | --- | --- | --- |
| CCCCCN(C)CCC(O)(P(=O)([O-])O)P(=O)(O)O.[Na+] [Form Alpha, (1-hydroxy-3-(N-methyl-N-pentylamino)propylidene) bisphosphonic acid monosodium salt] | maintained their crystalline form | Alpha | Alpha | – |
| CCCCCN(C)CCC(O)(P(=O)([O-])O)P(=O)(O)O.[Na+] [Form C2, (1-hydroxy-3-(N-methyl-N-pentylamino)propylidene) bisphosphonic acid monosodium salt] | maintained their crystalline form | – | – | – |
| CCCCCN(C)CCC(O)(P(=O)([O-])O)P(=O)(O)O.[Na+] [Form C, (1-hydroxy-3-(N-methyl-N-pentylamino)propylidene) bisphosphonic acid monosodium salt, reference compound] | maintained their crystalline form | – | – | crystalline ibandronate sodium Form V |
| CCCCCN(C)CCC(O)(P(=O)([O-])O)P(=O)(O)O.[Na+] [Form n-butanolate, (1-hydroxy-3-(N-methyl-N-pentylamino)propylidene) bisphosphonic acid monosodium salt] | maintained their crystalline form | n-butanolate | n-butanolate | – |
